Measured values reported in EP0422134B1, “5-HT SELECTIVE AGENTS” (ABBOTT LABORATORIES, priority 1988, dated 1990).
Structures can show the parent of a compound that is named as a salt.

Key:
5-HT1 = test: Radioligand binding, tritiated 5-HT, rat frontal cortex homogenate (total 5-HT1); details: displacement of tritiated 5-HT
Procedure: Male Sprague-Dawley rats (150-200 g) were sacrificed and the brains were rapidly removed and placed on ice. The frontal cortext, including the portion immediately above the striatum and part of the parietal cortex were dissected. Tissues from 6-10 rats were pooled and homogenized in at least 40 volumes of tris-HCI buffer (0.05 M, pH 7.4) using a Brinkman Polytron (setting 5 for 20 seconds). This homogenate was centrifuged (48,000 G for 10 minutes), the pellet resuspended, and the process repeated three more times. Between the second and third washes, the tissue homogenate was incubated for 10 minutes at 37°C. The final pellet was resuspended in 100 volumes of TRIS buffer for use in the binding assay.
Radioligand binding affinity for subtypes of the serotonin receptor was determined by the method of Pedigo, Yamamura, and Nelson, op. cit. Tissue homogenate (0.5 mL) from rat frontal cortex, together with various concentrations of tritiated 5-HT and test compounds were added to glass tubes containing modified tris-HCI buffer to obtain, in each case, a final volume of 2 mL and having the following compositions: 5.7 mM ascorbate, 10 micromolar pargyline, 4mM CaCl2, 50 mM TRIS buffer; pH 7.4 at 37°C.
Each mixture was incubated for 15 minutes at 37°C and then vacuum filtered through Whatman GF/B filters followed by three 5 mL washes with cold TRIS buffer. Radioactivity was extracted overnight in 3 mL of scintillation liquid and measured by liquid scintillation spectrometry (50% efficiency).
Binding parameters for saturation and drug displacement studies were calculated by Scatchard analysis and from Hill plots, respectively.

[1] = system: spontaneously hypertensive (SH) rat; test: Blood pressure in spontaneously hypertensive rats (tail cuff), oral dosing; type: in vivo; details: % change in blood pressure
Procedure: In another study, a group of spontaneously hypertensive male rats were trained to be restrained in a wire mesh cylinder in a warming box, at least two training cycles being conducted before testing. The rats were warmed for about one-hour prior to blood pressure measurement, the warming box being maintained at a constant temperature of 36°C. An occluding cuff attached to a programmed sphygmomanometer was placed near the base of the tail of each rat and the pressure of the cuff was increased automatically from 0 to 250 millimeters of mercury at a rate of 10 mm Hg pressure per second. The total time for each cycle of inflation and deflation of the cuff was 50 seconds and the interval between cycles was one minute A photocell, placed distally to the cuff, recorded the pulses due to the forward motion of blood flow with each heart beat. As the pressure in the cuff increased, the pulse disappeared completely at the point where the cuff pressure equalled and exceeded the arterial blood pressure. The pulse reappeared during deflation at approximately the same pressure. Five interference free signals were recorded for each rat. Rats with a blood pressure of 180 mm Hg or more during the control period were used in the study.
Blood pressure and heart rate readings were recorded on a Model VII Grass polygraph at various intervals after administration of the test compound. […] For the in vivo test data, SHR refers to spontaneously hypertensive rats, dosed in milligrams per kilogram (mpk), with the data being expressed in the Table in +% changes at a particular dosage range.

Row | IC50 (5-HT1) | Structure (SMILES) | In Vivo Data SHR (mpk, p.o. dose) ([1]; 30 mg/kg p.o.) | In Vivo Data SHR (mpk, p.o. dose) ([1]; 10 mg/kg p.o.)
1 | 279 nM | COc1cccc2c1[C@H]1CCN(CCCN3C(=O)CC4(CCCC4)CC3=O)C[C@@H]1C2 (relative stereo) [Example 50, trans-2-(3-(3,3-tetramethylene)glutarimidyl)propyl-5-methoxy-2,3,4,4a,9,9a-hexahydro-1 H-indeno [2,1-c]pyridine hydrochloride] | – | –
2 | 60 nM | COc1cccc2c1[C@H]1CCN(CCCCN3C(=O)CC4(CCCC4)CC3=O)C[C@@H]1C2 (relative stereo) [Example 51, trans-2-(4-(3,3-tetramethylene)glutarimidyl)butyl-5-methoxy-2,3,4,4a,9,9a-hexahydro-1H-indeno [2,1-c] pyridine hydrochloride] | -36% at 30 mg/kg | –
3 | 22 nM | COc1cccc2c1[C@H]1CCN(CCCN3C(=O)c4ccccc4S3(=O)=O)C[C@@H]1C2 (relative stereo) [Example 56, trans-2(3-(2-(1,2-benzisothiazolin-3-one-1,1-dioxyde))propyl)-5-methoxy-2,3,4,4a,9,9a-hexahydro-1 H-indeno[2,1-c]pyridine hydrochloride] | – | -18% at 10 mg/kg
4 | 26 nM | COc1cccc2c1[C@H]1CCN(CCCCN3C(=O)c4ccccc4S3(=O)=O)C[C@@H]1C2 (relative stereo) [Example 57, trans-2(4-(2-(1,2-benzisothiazolin-3-one-1,1-dioxyde))butyl)-5-methoxy-2,3,4,4a,9,9a-hexahydro-1H-indeno[2,1-c]pyridine hydrochloride] | -17% at 30 mg/kg | –
5 | 218 nM | COc1cccc2c1C1CN(CCCCN3C(=O)CC4(CCCC4)CC3=O)CC1C2 (centres unmarked) [Example 7, 2-(4-(3,3-tetramethylene)glutarimidyl)butyl-4-methoxy-1,2,3,3a,8,8a-hexahydoindeno[1,2-c]pyrrole hydrochloride] | -28% | -14%
6 | 714 nM | COc1c(Cl)ccc2c1C1CN(CCCCN3C(=O)CC4(CCCC4)CC3=O)CC1C2 (centres unmarked) [Example 8, 2-(4-(3,3-tetramethylene)glutarimidyl)butyl-5-chroro-4-methoxy-1,2,3,3a,8,8a-hexahydroindeno[1,2-c] pyrrole hydrochloride] | -37% at 30 mg/kg | –
7 | 262 nM | Br.O=C(NCCN1CC2Cc3cccc(O)c3C2C1)c1ccc(F)cc1 (centres unmarked) [Example 19, 4-Hydroxy-2-(2-(4-fluorobenzamido)ethyl)-1,2,3,3a,8,8a-hexahydroindeno[1,2-c]pyrrole hydrobromide] | -9% at 30 mg/kg | –
8 | 1840 nM | O=C1CC2(CCCC2)CC(=O)N1CCCCN1CC2Cc3cccc(O)c3C2C1 (centres unmarked) [Example 20, 2-(4-(3,3-tetramethylene)glutarimidyl)butyl-4-hydroxy-1,2,3,3a,8,8a-hexahydroindeno[1,2-c]pyrrole hydrobromide] | – | –
9 | 438 nM | COc1cccc2c1C1CN(CCCCN3C(=O)c4ccccc4S3(=O)=O)CC1C2 (centres unmarked) [Example 21, 4-Methoxy-2-(4-(2-(1,2-benzisothiazolin-3-one1,1-dioxide))butyl)1,2,3,3a,8,8a-hexahydroindeno-[1,2-c]pyrrole hydrochloride] | -28% | -16%
10 | 1090 nM | O=C1c2ccccc2S(=O)(=O)N1CCCCN1CC2Cc3cccc(O)c3C2C1 (centres unmarked) [Example 22, 4-Hydroxy-2-(4-(2-(1.2-benzisothiazolin-3-one-1,1-dioxide))butyl)-1,2,3,3a,8,8a-hexahydroindeno-[1,2-c]pyrrole hydrochloride] | -16% at 30 mg/kg | –
11 | 1730 nM | COc1cccc2c1C1CN(CCCCN3C(=O)CC(C)(C)CC3=O)CC1C2 (centres unmarked) [Example 23, 2-(4-(3,3-dimethyl)glutarimidyl)butyl-4-methoxy-1,2,3,3a,8,8a-hexahydroindeno-[1,2-c]pyrrole hydrochloride] | -12% at 30 mg/kg | –
12 | 404 nM | COc1cccc2c1C1CN(CCCCN3C(=O)c4ccccc4C3=O)CC1C2 (centres unmarked) [Example 24, 4-Methoxy-2-(4-(2-phthalimido)butyl)-1,2,3,3a,8,8a-hexahydroindeno[1,2-c]pyrrole hydrochloride] | – | –
13 | 3300 nM | COc1cccc2c1C1CN(CCCN3C(=O)CC4(CCCC4)CC3=O)CC1C2 (centres unmarked) [Example 26, 2-(3-(3,3-tetramethylene)glutarimidyl)propyl-4-methoxy-1,2,3,3a,8,8a-hexahydroindeno[1,2-c]pyrrole hydrochloride] | -23% at 30 mg/kg | –
14 | 3320 nM | O=C1CC2(CCCC2)CC(=O)N1CCCN1CC2Cc3cccc(O)c3C2C1 (centres unmarked) [Example 27, 2-(3-(3,3-tetramethylene)glutarimidyl)propyl-4-hydroxy-1,2,3,3a,8,8a-hexahydroindeno[1,2-c]pyrrole hydrobromide] | – | –
15 | 722 nM | COc1cccc2c1C1CN(CCCCCN3C(=O)CC4(CCCC4)CC3=O)CC1C2 (centres unmarked) [Example 28, 2-(5-(3,3-tetramethylene)glutarimidyl)pentyl-4-methoxy-1,2,3,3a,8,8a-hexahydroindeno[1,2-c]pyrrole hydrochloride] | – | –
16 | 3630 nM | COc1cccc2c1C1CN(C/C=C\CN3C(=O)CC4(CCCC4)CC3=O)CC1C2 (stereo not drawn) [Example 29, 2-(4-(3,3-tetramethylene)glutarimidyl)-cis-but-2-enyl-4-methoxy-1,2,3,3a,8,8a-hexahydroindeno [1,2-c] pyrrole hydrochloride] | -19% at 30 mg/kg | –
17 | 533 nM | COc1cccc2c1C1CN(C/C=C/CN3C(=O)CC4(CCCC4)CC3=O)CC1C2 (stereo not drawn) [Example 30, 2-(4-(3,3-tetramethylene)glutarimidyl)-trans-but-2-enyl-4-methoxy-1,2,3,3a,8,8a-hexahydroindeno [1,2-c]pyrrole hydrochloride] | -11% at 30 mg/kg | –
18 | 457 nM | COc1cccc2c1C1CN(C[C@H]3COc4ccccc4O3)CC1C2 (stereo partly drawn) [Example 31, 2S-(1,4-benzodioxanyl-2-methyl)-4-methoxy-1,2,3,3a,8,8a-hexahydroindeno[1,2-c]pyrrole hydrochloride] | – | –
19 | 992 nM | COc1cccc2c1C1CN(C[C@@H]3COc4ccccc4O3)CC1C2 (stereo partly drawn) [Example 32, 2R-(1,4-benzodioxanyl-2-methyl)-4-methoxy-1,2,3,3a,8,8a-hexahydroindeno[1,2-c]pyrrole hydrochloride] | – | –
20 | 3120 nM | COc1cccc2c1C1CCN(CCCN3C(=O)CC4(CCCC4)CC3=O)CC1C2 (stereo not drawn) [Example 43, cis-2-(3-(3,3-tetramethylene)glutarimidyl)propyl-5-methoxy-2,3,4,4a,9,9a-hexahydro-1H-indeno[2,1-c] pyridine hydrochloride] | -17.5% at 30 mg/kg | –
21 | 505 nM | COc1cccc2c1C1CCN(CCCCN3C(=O)CC4(CCCC4)CC3=O)CC1C2 (centres unmarked) [Example 44, hydrochloride] | – | –
22 | 1840 nM | O=C1CC2(CCCC2)CC(=O)N1CCCCN1CC2Cc3ccc(Cl)c(O)c3C2C1 (centres unmarked) [Example 52, 2-(4-(3,3-Tetramethylene)glutarimidyl)butyl-5-chloro-4-hydroxy-1,2,3,3a,8,8a-hexahydroindeno[1,2-c]-pyrrole hydrobromide] | -23% at 30 mg/kg | –
23 | 283 nM | COc1cccc2c1C1CN(CCCCN3C(=O)C4C5C=CC(C6C=CC65)C4C3=O)CC1C2 (centres unmarked) [Example 54, 4-Methoxy-2-(4-(3a,4,4a,6a,7,7a-hexahydro-4,7-etheno-1H-cyclobut[flisoindol-1,3-dionyl)-butyl)-1,2,3,3a,8,8a-hexahydroindeno-[1,2-c]pyrrole hydrochloride] | – | –
24 | 43 nM | COc1cccc2c1C1CCN(CCNC(=O)c3ccc(F)cc3)CC1C2 (stereo not drawn) [Example 58, trans-2-(2-(4-fluorobenzamido)ethyl)-5-methoxy-2,3,4,4a,9.9a-hexahydro-1H-indeno[2,1-c]pyridine hydrochloride] | – | -18% at 10 mg/kg
